Tests used:
SNB-19 = assay: cells; conditions: Homo sapiens; for activity at 10 µM: SNB-19, 48 h, read-out: Growth Percentage; for CC50: SNB-19, read-out: LC50; for IC (TGI): SNB-19, read-out: TGI
UO-31 = assay: NCI-60 anticancer screen (SRB; single dose and five doses); conditions: Homo sapiens; for activity at 10 µM: UO-31, 48 h, read-out: Growth Percentage; for IC (TGI): UO-31, read-out: TGI
HL-60(TB) = assay: as above; conditions: Homo sapiens; for activity at 10 µM: HL-60, 48 h, read-out: Growth Percentage; for CC50: HL-60, read-out: LC50; for IC (TGI): HL-60, read-out: TGI
NCI-H460 = assay: as above; conditions: Homo sapiens; for activity at 10 µM: NCI-H460, 48 h, read-out: Growth Percentage; for CC50: NCI-H460, read-out: LC50; for IC (TGI): NCI-H460, read-out: TGI
HCT-116 = assay: as above; conditions: Homo sapiens; for activity at 10 µM: HCT-116, 48 h, read-out: Growth Percentage; for CC50: HCT-116, read-out: LC50; for IC (TGI): HCT-116, read-out: TGI
SF-268 = assay: as above; conditions: Homo sapiens; for activity at 10 µM: SF-268, 48 h, read-out: Growth Percentage; for CC50: SF-268, read-out: LC50; for IC (TGI): SF-268, read-out: TGI
SK-MEL-5 = assay: as above; conditions: Homo sapiens; for activity at 10 µM: SK-MEL-5, 48 h, read-out: Growth Percentage; for CC50: SK-MEL-5, read-out: LC50; for IC (TGI): SK-MEL-5, read-out: TGI
tubulin = assay: In vitro tubulin polymerization inhibition assay; format: biochemical; conditions: 4 mg/mL tubulin, 37°C, absorbance at 340 nm
Method: 4.2.2. In Vitro Tubulin Polymerization Inhibition Assay.
2p, and the reference drug CD -4) with the microtubule system. Specifically, the in vitro inhibition of tubulin polymerization was evaluated for these compounds. The standard tubulin polymerization reaction was carried out, containing 100 μL of 4 mg/mL tubulin in a buffer solution of 80 mM PIPES (pH 6.9), 0.5 mM EGTA, 2 mM MgCl2, and 1 mM GTP. Polymerization was initiated by incubating the reaction […]
Under these conditions, polymerization typically reaches a maximum absorbance of […]
growth, and steady state. In this experimental set up, an absorbance of 0.1 at 340 nm corresponds to approximately 1 mg/mL of polymerized tubulin, meaning that around […]
40% of the tubulin is polymerized, allowing for the detection of both enhancers and inhibitors of polymerization. The inhibitory effect of each compound on tubulin polymerization was quantified by determining the IC50 values, which were reported as the mean ± standard deviation from three independent experiments. […]

SMILES | GI50 (SNB-19; SNB-19) [µM] | activity at 10 µM (SNB-19) [%] | CC50 (SNB-19) [µM] | IC (TGI) (SNB-19) [µM] | GI50 (UO-31; UO-31) [µM] | activity at 10 µM (UO-31) [%] | IC (TGI) (UO-31) [µM] | GI50 (HL-60(TB); HL-60) [µM] | activity at 10 µM (HL-60(TB)) [%] | CC50 (HL-60(TB)) [µM] | IC (TGI) (HL-60(TB)) [µM] | GI50 (NCI-H460; NCI-H460) [µM] | activity at 10 µM (NCI-H460) [%] | CC50 (NCI-H460) [µM] | IC (TGI) (NCI-H460) [µM] | GI50 (HCT-116; HCT-116) [µM] | activity at 10 µM (HCT-116) [%] | activity at 10 µM (SF-268) [%] | activity at 10 µM (SK-MEL-5) [%] | melting point [°C] | other results
Cc1[nH]c(=S)sc1C(=O)/C=C/c1ccc(F)cc1 [2c, (E)-3-(4-Fluorophenyl)-1-(4-Methyl-2-Thioxo-2,3-Dihydrothiazol-5-yl)Prop-2-En-1-One] | 4.87 | 33.7 | 43.1 | 17.8 | 2.88 | 28.1 | 15.7 | 2.83 | 13 | > 100 | 32.2 | 15.2 | 39.3 | 83.3 | 35.6 | 3.99 | 23.7 | 58.6 | 42.6 | – | CC50 (HCT-116): 42.5 µM; IC (TGI) (HCT-116): 15.2 µM; GI50 (SF-268; SF-268): 13 µM; CC50 (SF-268): 63.1 µM; IC (TGI) (SF-268): 28.7 µM; GI50 (SK-MEL-5; SK-MEL-5): 6.77 µM; CC50 (SK-MEL-5): 44.2 µM; IC (TGI) (SK-MEL-5): 19.5 µM
Cc1[nH]c(=S)sc1C(=O)/C=C/c1ccc(Br)cc1 [2g, (E)-3-(4-Bromophenyl)-1-(4-Methyl-2-Thioxo-2,3-Dihydrothiazol-5-yl)Prop-2-En-1-One] | 3.47 | 32.7 | 37.7 | 13.4 | 2.46 | 22.4 | 13.5 | 1.94 | 13.2 | > 100 | 9.92 | 14.3 | 39.1 | 80.9 | 34.1 | 3.82 | 16.6 | 46.1 | 48.8 | – | CC50 (HCT-116): 40.9 µM; IC (TGI) (HCT-116): 13.1 µM; IC50 (tubulin): 18.5 µM; GI50 (SF-268; SF-268): 13.5 µM; CC50 (SF-268): 64.2 µM; IC (TGI) (SF-268): 29.5 µM; GI50 (SK-MEL-5; SK-MEL-5): 5.82 µM; CC50 (SK-MEL-5): 43 µM; IC (TGI) (SK-MEL-5): 18.4 µM
Cc1ccc(/C=C/C(=O)c2sc(=S)[nH]c2C)cc1 [2j, (E)-1-(4-Methyl-2-Thioxo-2,3-Dihydrothiazol-5-yl)-3-(p-Tolyl)Prop-2-En-1-One] | – | 65.5 | – | – | – | 46.8 | – | – | 61 | – | – | – | 53.1 | – | – | – | 46.7 | 86.9 | 56.1 | 241 to 243 | –
Cc1[nH]c(=S)sc1C(=O)/C=C/c1ccccc1 [2a, (E)-1-(4-Methyl-2-Thioxo-2,3-Dihydrothiazol-5-yl)-3-Phenylprop-2-En-1-One] | – | 66.8 | – | – | – | 39.3 | – | – | 49.6 | – | – | – | 56.7 | – | – | – | 49.4 | 69.8 | 68.8 | 245 to 247 | –
COc1ccc(/C=C/C(=O)c2sc(=S)[nH]c2C)cc1 [2l, (E)-3-(4-Methoxyphenyl)-1-(4-Methyl-2-Thioxo-2,3-Dihydrothiazol-5-yl)Prop-2-En-1-One] | – | 75.6 | – | – | – | 49 | – | – | 58.5 | – | – | – | 85.6 | – | – | – | 76 | 81 | 55.9 | 246 to 248 | –
Cc1[nH]c(=S)sc1C(=O)/C=C/c1ccc(N(C)C)cc1 [2k, (E)-3-(4-(Dimethylamino)Phenyl)-1-(4-Methyl-2-Thioxo-2,3-Dihydrothiazol-5-yl)Prop-2-En-1-One] | – | 71.2 | – | – | – | 48.3 | – | – | 87 | – | – | – | 85.7 | – | – | – | 72.2 | 99.3 | 51.3 | 249 to 251 | –
COc1cccc(/C=C/C(=O)c2sc(=S)[nH]c2C)c1OC [2m, (E)-3-(2,3-Dimethoxyphenyl)-1-(4-Methyl-2-Thioxo-2,3-Dihydrothiazol-5-yl)Prop-2-En-1-One] | – | 37.2 | – | – | – | 53.7 | – | – | 12.7 | – | – | – | 40.1 | – | – | – | 46.5 | 54 | 23.5 | 239 to 240 | –
COc1ccc(/C=C/C(=O)c2sc(=S)[nH]c2C)c(OC)c1 [2n, (E)-3-(2,4-Dimethoxyphenyl)-1-(4-Methyl-2-Thioxo-2,3-Dihydrothiazol-5-yl)Prop-2-En-1-One] | – | 77.4 | – | – | – | – | – | – | 55.8 | – | – | – | 89.8 | – | – | – | 62.3 | 89.7 | 37.8 | 255 to 257 | –
Cc1[nH]c(=S)sc1C(=O)/C=C/c1ccc([N+](=O)[O-])cc1 [2i, (E)-1-(4-Methyl-2-Thioxo-2,3-Dihydrothiazol-5-yl)-3-(4-Nitrophenyl)Prop-2-En-1-One] | 5.42 | 41.2 | 43.2 | 18.3 | 4.86 | -41.3 | 18.8 | 3.05 | -5.39 | > 100 | 16.9 | 15.9 | 11.3 | 72.5 | 34 | 2.78 | -47.8 | 47.4 | 53.8 | – | CC50 (HCT-116): 44.3 µM; IC (TGI) (HCT-116): 7.89 µM; GI50 (SF-268; SF-268): 15.6 µM; CC50 (SF-268): 67.3 µM; IC (TGI) (SF-268): 32.4 µM; GI50 (SK-MEL-5; SK-MEL-5): 12 µM; CC50 (SK-MEL-5): 49.7 µM; IC (TGI) (SK-MEL-5): 24.4 µM
Cc1[nH]c(=S)sc1C(=O)/C=C/c1ccccc1Cl [2d, (E)-3-(2-Chlorophenyl)-1-(4-Methyl-2-Thioxo-2,3-Dihydrothiazol-5-yl)Prop-2-En-1-One] | – | 85.2 | – | – | – | 73.7 | – | – | 53 | – | – | – | 82.2 | – | – | – | 44.6 | 80.4 | 68.5 | 240 to 242 | –
Cc1[nH]c(=S)sc1C(=O)/C=C/c1cccc(F)c1 [2b, (E)-3-(3-Fluorophenyl)-1-(4-Methyl-2-Thioxo-2,3-Dihydrothiazol-5-yl)Prop-2-En-1-One] | – | 44 | – | – | – | 44.3 | – | – | 12 | – | – | – | 43.2 | – | – | – | 21.2 | 82.3 | 62.2 | 234 to 236 | –
Cc1[nH]c(=S)sc1C(=O)/C=C/c1ccc(Cl)cc1 [2f, (E)-3-(4-Chlorophenyl)-1-(4-Methyl-2-Thioxo-2,3-Dihydrothiazol-5-yl)Prop-2-En-1-One] | 12 | 15.8 | 50.1 | 24.6 | 4.07 | 30.4 | 18.2 | 3.55 | -0.98 | > 100 | 38 | 12 | 82.6 | 69.2 | 28.8 | 6.61 | 6.98 | 67.9 | 28 | – | IC50 (SNB-19; SNB-19): 22.4 µM; IC50 (UO-31; UO-31): 11.2 µM; IC50 (HL-60(TB); HL-60): 5.89 µM; IC50 (NCI-H460; NCI-H460): 19.1 µM; IC50 (HCT-116; HCT-116): 7.94 µM; CC50 (HCT-116): 74.1 µM; IC (TGI) (HCT-116): 24.6 µM; GI50 (SF-268; SF-268): 12 µM; IC50 (SF-268; SF-268): 24.6 µM; CC50 (SF-268): 64.6 µM; IC (TGI) (SF-268): 28.2 µM; GI50 (SK-MEL-5; SK-MEL-5): 11.2 µM; IC50 (SK-MEL-5; SK-MEL-5): 20.4 µM; CC50 (SK-MEL-5): 49 µM; IC (TGI) (SK-MEL-5): 23.4 µM
COc1ccc(/C=C/C(=O)c2sc(=S)[nH]c2C)cc1OC [2o, (E)-3-(3,4-Dimethoxyphenyl)-1-(4-Methyl-2-Thioxo-2,3-Dihydrothiazol-5-yl)Prop-2-En-1-One] | – | 61.9 | – | – | – | 49.2 | – | – | 35.6 | – | – | – | 40 | – | – | – | 34.5 | 67.2 | 63.1 | 245 to 247 | –

Source: PMC11435058, “Synthesis of New Thiazole-Privileged Chalcones as Tubulin Polymerization Inhibitors with Potential Anticancer Activities” (Pharmaceuticals, 2024)
